Laboratory results taken from patent US12410208B2, “(2-acetamidyl)thio-beta-D-galactopyranoside derivatives” (Idorsia Pharmaceuticals Ltd, priority 2020, dated 2025).
Like-named read-outs stand apart in the source and are kept apart here.

Columns and labels:
human Gal-1 (hGal-1) = human Gal-1 (hGal-1) (Homo sapiens, UniProt P09382); experiment: Competitive binding assay: biotinylated hGal-1 binding to microplate-adsorbed asialofetuin (ASF), spectrophotometric; conditions: hGal-1 binding to asialofetuin; Table 15; R and S epimers of selected Examples also listed; read-out: IC50 (Galectin-1 inhibition)
Procedure, shortened: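 Biotinylated hGal-1 (300-1000 ng/mL) incubated with compound on asialofetuin-coated plates 3 hours at 4 °C, washed, then streptavidin-peroxidase (80 ng/mL) 1 hour at 4 °C. ABTS substrate read spectrophotometrically; IC50 reported as mean of several measurements.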

[1] = target: biotinylated human Gal-3 (hGal-3) (Homo sapiens, UniProt P17931); experiment: Competitive binding assay: biotinylated hGal-3 binding to microplate-adsorbed asialofetuin (ASF), spectrophotometric
Procedure, shortened: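 Competitive binding of biotinylated hGal-3 to plate-adsorbed asialofetuin was measured with serially diluted compounds over 3 h at 4° C. Bound protein was detected with streptavidin-peroxidase and ABTS substrate by absorbance. IC50 values are means of several measurements.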

[2] = Table 6, hGal-3, read-out: IC50 (Gal-3 inhibition)
[3] = Table 12, hGal-3, read-out: IC50 (Gal-3 inhibition)
[4] = Gal-3 inhibition, Table 5, read-out: IC50
[5] = Gal-3 inhibition, Table 4, read-out: IC50
[6] = Table 8, hGal-3, read-out: IC50 (Gal-3 inhibition)

Chain of human Gal-1 (hGal-1) (P09382 whole entry): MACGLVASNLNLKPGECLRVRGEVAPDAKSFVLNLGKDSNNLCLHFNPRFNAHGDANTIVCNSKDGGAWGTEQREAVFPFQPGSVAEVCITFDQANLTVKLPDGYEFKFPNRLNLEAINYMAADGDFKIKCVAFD
Chain of biotinylated human Gal-3 (hGal-3) (P17931 whole entry): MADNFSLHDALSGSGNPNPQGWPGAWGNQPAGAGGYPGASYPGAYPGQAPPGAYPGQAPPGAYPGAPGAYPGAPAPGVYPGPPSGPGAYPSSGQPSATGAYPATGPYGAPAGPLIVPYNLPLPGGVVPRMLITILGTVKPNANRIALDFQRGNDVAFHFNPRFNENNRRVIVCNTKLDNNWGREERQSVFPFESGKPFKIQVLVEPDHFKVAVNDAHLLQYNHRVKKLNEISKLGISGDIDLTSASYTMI

CN(Cc1ccccc1)C(=O)C(S[C@@H]1O[C@H](CO)[C@H](O)[C@H](n2cc(-c3cc(F)c(F)c(F)c3)nn2)[C@H]1O)C(C)(C)O (stereo partly drawn) [Example 2.31.207., N-Benzyl-2-(((2S,3R,4S,5R,6R)-3,5-dihydroxy-6-(hydroxymethyl)-4-(4-(3,4,5-trifluorophenyl)-1H-1,2,3-triazol-1-yl)tetrahydro-2H-pyran-2-yl)thio)-3-hydroxy-N,3-dimethylbutanamide]
IC50 (human Gal-1 (hGal-1)): 570 nM | IC50 [1, 2]: 60 nM

CO[C@@H]1[C@@H](n2cc(-c3cc(F)c(F)c(F)c3)nn2)[C@@H](O)[C@@H](CO)O[C@H]1SC(C(=O)N(C)CC(F)(F)F)C1(O)CCC(F)(F)CC1 (stereo partly drawn) [Example 2.44.241.I., 2-(4,4-Difluoro-1-hydroxycyclohexyl)-2-(((2S,3R,4S,5R,6R)-5-hydroxy-6-(hydroxymethyl)-3-methoxy-4-(4-(3,4,5-trifluorophenyl)-1H-1,2,3-triazol-1-yl)tetrahydro-2H-pyran-2-yl)thio)-N-methyl-N-(2,2,2-trifluoroethyl)acetamide]
IC50 (human Gal-1 (hGal-1)): 650 nM | IC50 [1, 3]: 180 nM

CN(CC1(F)CCCC1)C(=O)C(S[C@@H]1O[C@H](CO)[C@H](O)[C@H](n2cc(-c3cc(F)c(F)c(F)c3)nn2)[C@H]1O)C1(O)CCC(F)(F)CC1 (stereo partly drawn) [Example 2.44.223R., 2-(4,4-Difluoro-1-hydroxycyclohexyl)-2-(((2S,3R,4S,5R,6R)-3,5-dihydroxy-6-(hydroxymethyl)-4-(4-(3,4,5-trifluorophenyl)-1H-1,2,3-triazol-1-yl)tetrahydro-2H-pyran-2-yl)thio)-N-((1-fluorocyclopentyl)methyl)-N-methylacetamide]
IC50 (human Gal-1 (hGal-1)): 13400 nM | IC50 [1, 4]: 3570 nM

CC1CN(C(=O)[C@H](S[C@@H]2O[C@H](CO)[C@H](O)[C@H](n3cc(-c4cc(F)c(F)c(F)c4)nn3)[C@H]2O)C2(O)CCOCC2)C1 [Example 2.41.205R., (R)-2-(((2S,3R,4S,5R,6R)-3,5-Dihydroxy-6-(hydroxymethyl)-4-(4-(3,4,5-trifluorophenyl)-1H-1,2,3-triazol-1-yl)tetrahydro-2H-pyran-2-yl)thio)-2-(4-hydroxytetrahydro-2H-pyran-4-yl)-1-(3-methylazetidin-1-yl)ethan-1-one]
IC50 (human Gal-1 (hGal-1)): 4900 nM | IC50 [1, 5]: 1000 nM

CCN(C)C(=O)[C@@H](S[C@@H]1O[C@H](CO)[C@H](O)[C@H](n2cc(-c3cc(F)c(F)c(F)c3)nn2)[C@H]1O)C1(O)CCC1 [Example 2.34.203S., (S)-2-(((2S,3R,4S,5R,6R)-3,5-Dihydroxy-6-(hydroxymethyl)-4-(4-(3,4,5-trifluorophenyl)-1H-1,2,3-triazol-1-yl)tetrahydro-2H-pyran-2-yl)thio)-N-ethyl-2-(1-hydroxycyclobutyl)-N-methylacetamide]
IC50 (human Gal-1 (hGal-1)): 170 nM | IC50 [1, 4]: 120 nM

CCN(C)C(=O)C(S[C@@H]1O[C@H](CO)[C@H](O)[C@H](n2cc(-c3cc(F)c(F)c(F)c3)nn2)[C@H]1O)C(C)C (stereo partly drawn) [Example 2.53.203., 2-(((2S,3R,4S,5R,6R)-3,5-dihydroxy-6-(hydroxymethyl)-4-(4-(3,4,5-trifluorophenyl)-1H-1,2,3-triazol-1-yl)tetrahydro-2H-pyran-2-yl)thio)-N-ethyl-N,3-dimethylbutanamide, reference compound]
IC50 (human Gal-1 (hGal-1)): 35900 nM | IC50 ([1]; Gal-3 inhibition, Table 1 (Reference Examples), read-out: IC50): 7800 nM

CC(C)CN(C)C(=O)[C@H](S[C@@H]1O[C@H](CO)[C@H](O)[C@H](n2cc(-c3cc(F)c(F)c(F)c3)nn2)[C@H]1O)C1(O)CCOCC1 [Example 2.41.200R., (R)-2-(((2S,3R,4S,5R,6R)-3,5-Dihydroxy-6-(hydroxymethyl)-4-(4-(3,4,5-trifluorophenyl)-1H-1,2,3-triazol-1-yl)tetrahydro-2H-pyran-2-yl)thio)-2-(4-hydroxytetrahydro-2H-pyran-4-yl)-N-isobutyl-N-methylacetamide]
IC50 (human Gal-1 (hGal-1)): 10900 nM | IC50 ([1]; Gal-3 inhibition, Table 2, read-out: IC50): 4010 nM

CO[C@@H]1[C@@H](n2cc(-c3cc(F)c(F)c(F)c3)nn2)[C@@H](O)[C@@H](CO)O[C@H]1S[C@H](C(=O)N(C)CC(C)(C)F)C1(O)CCC(F)(F)CC1 [Example 2.44.222S.I., (S)-2-(4,4-Difluoro-1-hydroxycyclohexyl)-N-(2-fluoro-2-methylpropyl)-2-(((2S,3R,4S,5R,6R)-5-hydroxy-6-(hydroxymethyl)-3-methoxy-4-(4-(3,4,5-trifluorophenyl)-1H-1,2,3-triazol-1-yl)tetrahydro-2H-pyran-2-yl)thio)-N-methylacetamide]
IC50 (human Gal-1 (hGal-1)): 70 nM | IC50 [1, 3]: 10 nM

CCN(C)C(=O)C(S[C@@H]1O[C@H](CO)[C@H](O)[C@H](n2cc(-c3cc(F)c(F)c(F)c3)nn2)[C@H]1O)C1(O)CCN(C(=O)OC)CC1 (stereo partly drawn) [Example 2.50.203., Methyl 4-(1-(((2S,3R,4S,5R,6R)-3,5-dihydroxy-6-(hydroxymethyl)-4-(4-(3,4,5-trifluorophenyl)-1H-1,2,3-triazol-1-yl)tetrahydro-2H-pyran-2-yl)thio)-2-(ethyl(methyl)amino)-2-oxoethyl)-4-hydroxypiperidine-1-carboxylate]
IC50 (human Gal-1 (hGal-1)): 100 nM | IC50 [1, 6]: 70 nM

CCN(C)C(=O)[C@@H](S[C@@H]1O[C@H](CO)[C@H](O)[C@H](n2cc(-c3cc(F)c(F)c(F)c3)nn2)[C@H]1O)C(C)(C)O [Example 2.31.203S., (S)-2-(((2S,3R,4S,5R,6R)-3,5-Dihydroxy-6-(hydroxymethyl)-4-(4-(3,4,5-trifluorophenyl)-1H-1,2,3-triazol-1-yl)tetrahydro-2H-pyran-2-yl)thio)-N-ethyl-3-hydroxy-N,3-dimethylbutanamide]
IC50 (human Gal-1 (hGal-1)): 240 nM | IC50 ([1]; Gal-3 inhibition, Table 3, read-out: IC50): 70 nM

CCN(C)C(=O)[C@H](S[C@@H]1O[C@H](CO)[C@H](O)[C@H](n2cc(-c3cc(F)c(F)c(F)c3)nn2)[C@H]1OC)C1(O)CCN(C(=O)NC2CC2)CC1 [Example 2.49.226R.I., N-Cyclopropyl-4-((R)-2-(ethyl(methyl)amino)-1-(((2S,3R,4S,5R,6R)-5-hydroxy-6-(hydroxymethyl)-3-methoxy-4-(4-(3,4,5-trifluorophenyl)-1H-1,2,3-triazol-1-yl)tetrahydro-2H-pyran-2-yl)thio)-2-oxoethyl)-4-hydroxypiperidine-1-carboxamide]
IC50 (human Gal-1 (hGal-1)): 80 nM | IC50 [1, 6]: 1740 nM

CN(CC(F)(F)F)C(=O)[C@H](S[C@@H]1O[C@H](CO)[C@H](O)[C@H](n2cc(-c3cc(F)c(F)c(F)c3)nn2)[C@H]1O)C1(O)CCC1 [Example 2.34.219R., (R)-2-(((2S,3R,4S,5R,6R)-3,5-Dihydroxy-6-(hydroxymethyl)-4-(4-(3,4,5-trifluorophenyl)-1H-1,2,3-triazol-1-yl)tetrahydro-2H-pyran-2-yl)thio)-2-(1-hydroxycyclobutyl)-N-methyl-N-(2,2,2-trifluoroethyl)acetamide]
IC50 (human Gal-1 (hGal-1)): 33600 nM | IC50 [1, 4]: 7840 nM

Cn1ccc(C(O)C(S[C@@H]2O[C@H](CO)[C@H](O)[C@H](n3cc(-c4cc(F)c(F)c(F)c4)nn3)[C@H]2O)C(=O)N2CCC2)n1 (stereo partly drawn) [Example 2.65.206., 1-(Azetidin-1-yl)-2-(((2S,3R,4S,5R,6R)-3,5-dihydroxy-6-(hydroxymethyl)-4-(4-(3,4,5-trifluorophenyl)-1H-1,2,3-triazol-1-yl)tetrahydro-2H-pyran-2-yl)thio)-3-hydroxy-3-(1-methyl-1H-pyrazol-3-yl)propan-1-one]
IC50 (human Gal-1 (hGal-1)): 7290 nM | IC50 ([1]; Gal-3 inhibition, Table 7, read-out: IC50): 1040 nM

CCC(O)(CC)C(S[C@@H]1O[C@H](CO)[C@H](O)[C@H](n2cc(-c3cc(F)c(F)c(F)c3)nn2)[C@H]1O)C(=O)N(C)CC1CC1 (stereo partly drawn) [Example 2.32.218., N-(Cyclopropylmethyl)-2-(((2S,3R,4S,5R,6R)-3,5-dihydroxy-6-(hydroxymethyl)-4-(4-(3,4,5-trifluorophenyl)-1H-1,2,3-triazol-1-yl)tetrahydro-2H-pyran-2-yl)thio)-3-ethyl-3-hydroxy-N-methylpentanamide]
IC50 (human Gal-1 (hGal-1)): 1130 nM | IC50 [1, 2]: 710 nM

CN(CC1CC1)C(=O)[C@H](S[C@@H]1O[C@H](CO)[C@H](O)[C@H](n2cc(-c3cc(F)c(F)c(F)c3)nn2)[C@H]1O)C1(O)CCC(F)(F)CC1 [Example 2.44.218R., (R)-N-(Cyclopropylmethyl)-2-(4,4-difluoro-1-hydroxycyclohexyl)-2-(((2S,3R,4S,5R,6R)-3,5-dihydroxy-6-(hydroxymethyl)-4-(4-(3,4,5-trifluorophenyl)-1H-1,2,3-triazol-1-yl)tetrahydro-2H-pyran-2-yl)thio)-N-methylacetamide]
IC50 (human Gal-1 (hGal-1)): 1900 nM | IC50 [1, 4]: 1150 nM

CO[C@@H]1[C@@H](n2cc(-c3cc(F)c(F)c(F)c3)nn2)[C@@H](O)[C@@H](CO)O[C@H]1S[C@H](C(=O)N1CCC(F)(F)CC1)C1(O)CCC2(CCOCC2)CC1 [Example 2.72.226S.I., (S)-1-(4,4-Difluoropiperidin-1-yl)-2-(((2S,3R,4S,5R,6R)-5-hydroxy-6-(hydroxymethyl)-3-methoxy-4-(4-(3,4,5-trifluorophenyl)-1H-1,2,3-triazol-1-yl)tetrahydro-2H-pyran-2-yl)thio)-2-(9-hydroxy-3-oxaspiro[5.5]undecan-9-yl)ethan-1-one]
IC50 (human Gal-1 (hGal-1)): 100 nM | IC50 ([1]; Table 13, hGal-3, read-out: IC50 (Gal-3 inhibition)): 40 nM

CN1CCC(O)(C(S[C@@H]2O[C@H](CO)[C@H](O)[C@H](n3cc(-c4cc(F)c(F)c(F)c4)nn3)[C@H]2O)C(=O)N(C)Cc2ccccc2)CC1 (stereo partly drawn) [Example 2.40.207., N-Benzyl-2-(((2S,3R,4S,5R,6R)-3,5-dihydroxy-6-(hydroxymethyl)-4-(4-(3,4,5-trifluorophenyl)-1H-1,2,3-triazol-1-yl)tetrahydro-2H-pyran-2-yl)thio)-2-(4-hydroxy-1-methylpiperidin-4-yl)-N-methylacetamide]
IC50 (human Gal-1 (hGal-1)): 590 nM | IC50 [1, 5]: 90 nM
